Laboratory results as given in patent US20250120417A1, “FEED ADDITIVE COMPOSITIONS AND METHODS FOR USING THE SAME” (INT[…]&H DENMARK APS, priority 2021, published 2025).

How the values were obtained:
[1] = system: netB gene; assay type: cell-based, Clostridium perfringens
[2] = system: NetB toxin; assay type: cell-based, Clostridium perfringens strain 25037-CP01
[3] = system: HT-29 cells; assay type: cell-based, human

Compound	netB expression / toxin producing population in single cell data [1]	level of extracellular NetB toxin secreted into the media [2]	HT29 cell death [3]
N=C(N)NCCC[C@H](N)C(=O)O [arginine]	small reduction	–	–
Vitamin B12	–	reduced	–
Cc1ncc(CO)c(CO)c1O.Cl [Vitamin B6]	–	reduced	–
ammonium phosphate	–	reduced	–
N[C@@H](CC(=O)O)C(=O)O [aspartic acid]	marked reduction	lower the level	less than 10%
NCCC[C@H](N)C(=O)O [ornithine]	small reduction	–	–
Cc1ncc(C[n+]2csc(CCO)c2C)c(N)n1 [Vitamin B1]	–	reduced	–
CC(=O)[O-].[Na+] [sodium acetate]	–	reduced	–
